The record followed here is US20240174622A1, “COMPOUND AND RADIOACTIVE LABELING COMPOUND” (NIHON MEDI-PHYSICS CO., LTD., priority 2021, published 2024).

Series [1] has as its system PC-3 tumor. In words: SPECT/CT, PC-3 tumor in mouse transplanted with LNCaP and PC-3. Type of series: in vivo. To be noted: 24 (and 48) hours after administration. The protocol:
LNCaP cells (1.0×10^7 cells/mouse) were suspended in a mixture of PBS and Matrigel (1:1, 150 μL) and subcutaneously transplanted to the right shoulder of a male CB17/IcrJcl-Prkdc^scid mouse kept in the same manner as in Example 1-1 under isoflurane anesthesia. In addition, a suspension of PC-3 cells (1.0×10^7 cells/mouse) in a mixture of PBS and Matrigel (1:1, 150 μL) was subcutaneously transplanted into the left shoulder of the same mouse under isoflurane anesthesia. Thereafter, the mouse was kept for 40 to 60 days. In this way, a tumor-transplanted mouse in which LNCaP cells and PC-3 cells were simultaneously transplanted into one mouse was obtained. The tumor-transplanted mouse was then administered saline solution (2.7 MBq, 100 μL) of [^111In]In-PtDA from the tail vein. SPECT/CT was performed 24 and 48 hours after administration with FX3300 pre-clinical imaging system, which is manufactured by Gamma Medica-Ideas. Imaging was performed using a pinhole collimator with a diameter of 1.0 mm at a rotation radius of 35 mm, a projection time of 70 seconds, and the number of projections of 32 times under isoflurane anesthesia. After SPECT, CT (Tube voltage: 60 kV, Tube current: 350 μA) was performed. Image reconstruction was performed on the projection data of SPECT through three-dimensional ordered subset expectation maximization method (8 subsets, 5 iterations). […]

Series [2] can be described thus: Evaluation of stability in plasma. Type of series: in vitro ADME. To be noted: 37° C., 24 hours. The protocol: A saline (20 μL) solution of [^111In]In-PSMA-DA1 (370 kBq) or [^90Y]Y-PSMA-DA1 (3.7 MBq) was added to mouse plasma (200 μL), and the mixture was allowed to stand at 37° C. for 24 hours (n=3). Then, MeCN (200 μL) was added, and the mixture was centrifuged at 10,000×g for 5 minutes. The supernatant was filtered, and the filtrate was analyzed by reverse phase HPLC under the following conditions.
(Analytical conditions: Cosmosil 5C18-PAQ column (4.6×250 mm); mobile phase: MeCN/H2O/TFA [20/80/0.1 (0 min) to 50/50/0.1 (30 min)]; flow rate: 1 mL/min.)
A saline (20 μL) solution of [^111In]In-PtDA (259 kBq) was added to mouse plasma (200 μL), and the mixture was allowed to stand at 37° C. for 24 hours (n=3). MeCN (400 μL) was added thereto, and the mixture was centrifuged at 10,000×g for 5 minutes. The supernatant was filtered, and the filtrate was analyzed by reverse phase HPLC under the following conditions.
Analytical conditions: Cosmosil 5C18-AR-II column (4.6×150 mm); mobile phase: MeCN/H2O/TFA [10/90/0.1 (0 min) to 70/30/0.1 (30 min)]; flow rate: 1 mL/min.

In series [3] the test system is PC-3 cells (PSMA-negative, human prostate cancer). In words: Binding assay using cultured cells (PC-3). The settings on record: 37° C., 1 hour. Type of series: cell-based. The protocol: LNCaP cells (PSMA-positive, human prostate cancer) and PC-3 cells (PSMA-negative, human prostate cancer) were used. These cells were purchased from American Type Culture Collection and DS Biomedical, respectively. Each of the cells were cultured in RPMI 1640, which is manufactured by NACALAI TESQUE, INC. and contains antibiotics (penicillin and streptomycin) and 10% inactivated fetal bovine serum, at 37° C. under 5% CO2.
The LNCaP cells and PC-3 cells were each seeded on a 12 well plate at 4.0×10^5 cells/well, and left standing at 37° C. under 5% CO2 for 48 hours.
The culture medium was removed, and an assay medium (0.5% FBS-containing RPMI 1640 medium) solution (1 mL) containing [^111In]In-PSMA-DA1 or [^111In]In-PSMA-DB (37 kBq) was added. Thereafter, the plate was allowed to stand at 37° C. under 5% CO2 for 1 hour. […]
The radioactivity for each of the assay medium and the cell lysate was measured with a gamma counter. Separately, the total protein concentration in the cell lysate was calculated using BCA Protein Assay Kit, which is manufactured by Thermo Fisher Scientific K.K. The value (% ID/mg protein) obtained by dividing the percentage (% ID) of the sample's radioactivity amount to the added radioactivity amount by the total protein amount was calculated for each sample. […]

A short description of series [4]: Evaluation of distribution coefficient (1-octanol/PBS). Format: physicochemical. To be noted: 1-octanol / PBS pH 7.4. Here is the method: [^111In]In-PtDA (111 kBq) was added to a mixture of PBS (pH 7.4, 3 mL) and 1-octanol (3 mL), and the mixture was dispersed by vortexing for 2 minutes and then centrifuged at 4000×g for 5 minutes. 1 mL was recovered respectively from the 1-octanol layer and the PBS layer, and the radioactivity of each layer was measured with a gamma counter (n=3).
As the calculation formula, “(Distribution coefficient)=Log10[(radioactivity of 1-octanol layer [kBq])/(radioactivity of PBS layer [kBq])]” was used.

As for `O=C([O-])CN(Cc1cccc(C(=O)[O-])n1)C[C@H](Cc1ccc(NC(=O)[C@H](CCCCNC(=O)CCC(=O)NCCCC[C@H](NC(=O)N[C@@H](CCC(=O)O)C(=O)O)C(=O)O)NC(=O)CCCc2ccc(I)cc2)cc1)N(CC(=O)[O-])Cc1cccc(C(=O)[O-])n1.[111In+3]` [[^111In]In-Octapa-2], the “radioactivity signal in the PC-3 tumor in SPECT/CT” value in series [1] is reported as “hardly observed”.
Regarding `O=C([O-])CN1CCN(C(CCC(=O)NCCC(=O)N2Cc3ccccc3-c3c(nnn3CCOCCOCCOCCOCCC(=O)NCCCC[C@H](NC(=O)N[C@@H](CCC(=O)O)C(=O)O)C(=O)O)-c3ccccc32)C(=O)[O-])CCN(CC(=O)[O-])CCN(C(CCC(=O)N[C@@H](CCCCNC(=O)CCCc2ccc(I)cc2)C(=O)O)C(=O)[O-])CC1.[111In+3]` (some centres unmarked) [[^111In]In-PtDA], the “stably present in mouse plasma” value in series [2] is given as ≥ 95%. Also, in series [3], the “binding to PC-3 cells” value turned out to be 0.15 % ID/mg protein. Moreover, the “Log P (distribution coefficient)” value in series [4] is −3.08±0.02. Moreover, the “radioactivity signal in the PC-3 tumor in SPECT/CT” value in series [1] is “almost no radioactive signal”.
